Active and inactive are the calls of the source. The rule behind the calls is not given here.

In one assay the test system is Salmonella typhimurium. Briefly: Antimicrobial activity against Salmonella typhimurium MTCC 1251 assessed as inhibition of visual microbial growth incubated for 24 hrs at 37 degC. The format is functional, Salmonella enterica subsp. enterica serovar Typhimurium. The settings on record: Salmonella enterica, MTCC 1251, 24 h.
Another assay has as its system Klebsiella pneumoniae. Nature of the assay: Antimicrobial activity against Klebsiella pneumoniae MTCC 109 assessed as inhibition of visual microbial growth incubated for 24 hrs at 37 degC. It counts as functional. The settings on record: MTCC 109, 24 h.
For another assay, the system named is Proteus vulgaris. Briefly: Antimicrobial activity against Proteus vulgaris MTCC 1771 assessed as inhibition of visual microbial growth incubated for 24 hrs at 37 degC. It counts as functional. The settings on record: MTCC 1771, 24 h.
A further assay deals with Shigella flexneri. Nature of the assay: Antimicrobial activity against Shigella flexneri MTCC 1457 assessed as inhibition of visual microbial growth incubated for 24 hrs at 37 degC. It counts as functional.
In a further assay the test system is Micrococcus luteus. Briefly: Antimicrobial activity against Micrococcus luteus MTCC 106 assessed as inhibition of visual microbial growth incubated for 24 hrs at 37 degC. It counts as functional. The settings on record: MTCC 106, 24 h.
The next assay relates to Klebsiella aerogenes. Briefly: Antimicrobial activity against Enterobacter aerogenes MTCC 111 assessed as inhibition of visual microbial growth incubated for 24 hrs at 37 degC. The settings on record: MTCC 111, 24 h. The format is functional.
The subject of assay [1] is Staphylococcus aureus. Nature of the assay: Antimicrobial activity against Staphylococcus aureus MTCC 96 assessed as inhibition of visual microbial growth incubated for 24 hrs at 37 degC. The format is functional. The settings on record: MTCC 96, 24 h.
For assay [2], the system named is Staphylococcus aureus. Nature of the assay: Antimicrobial activity against methicillin-resistant Staphylococcus aureus assessed as inhibition of visual microbial growth incubated for 24 hrs at 37 degC. The format is functional.
The next assay deals with Candida albicans. Briefly: Antimicrobial activity against Candida albicans MTCC 227 assessed as inhibition of visual microbial growth incubated for 48 to 72 hrs at 28 degC. It counts as functional.
The subject of another assay is Malassezia pachydermatis. Nature of the assay: Antimicrobial activity against Malassezia pachydermatis assessed as inhibition of visual microbial growth incubated for 48 to 72 hrs at 28 degC. The format is functional.

By MIC is commonly meant the lowest concentration that inhibits growth of the organism. On to `Fc1ccccc1-c1csc(N2N=C(c3cccs3)CC2c2ccc3c(c2)OCO3)n1` (stereo not given), for which the MIC worked out at 250 µg/mL in the assay with Salmonella typhimurium; 500 µg/mL in the assay with Klebsiella pneumoniae; 500 µg/mL in the assay on Proteus vulgaris; 125 µg/mL with Micrococcus luteus; 500 µg/mL in the assay on Klebsiella aerogenes; 250 µg/mL in the assay on Staphylococcus aureus [1]. The MIC turned out to be 250 µg/mL in the assay on Staphylococcus aureus [2], 500 µg/mL with Candida albicans and 500 µg/mL in the assay on Malassezia pachydermatis. In addition, the MIC result in the assay with Shigella flexneri is “inactive”.

Regarding `O=[N+]([O-])c1ccc(-c2csc(N3N=C(c4cccs4)CC3c3cc4c(cc3Br)OCO4)n2)cc1` (stereo not given), the MIC in the assay with Salmonella typhimurium came out at 62.5 µg/mL; in the assay on Klebsiella pneumoniae, 250 µg/mL; in the assay on Proteus vulgaris, 125 µg/mL; in the assay on Shigella flexneri (MTCC 1457, 24 h), 250 µg/mL; with Micrococcus luteus it was 125 µg/mL; in the assay with Klebsiella aerogenes, 250 µg/mL. Besides, the MIC was found to be 250 µg/mL with Staphylococcus aureus [1], 62.5 µg/mL with Staphylococcus aureus [2], 125 µg/mL with Candida albicans and 500 µg/mL with Malassezia pachydermatis.

(Values after ChEMBL document CHEMBL3588812, “Thiophene and benzodioxole appended thiazolyl-pyrazoline compounds: Microwave assisted synthesis, antimicrobial and molecular docking studies” (2015).)
